Data on five compounds can be found in US9023874B2, “Fluorinated oxa or thia heteroarylalkylsulfide derivatives for combating invertebrate pests” (Merial, Inc., priority 2009, dated 2015).

SMILES strings stand for the structures.

Holding throughout (format): in vivo
The test system of assay [1] is vetch aphid (Megoura viciae). The assay can be described thus: Activity against vetch aphid, sprayed bean leaf disks in microtiter plates. The note with it: foliar, 144 h, test solution 2500 mg/L, leaf disk spray, 6 days, read-out: mortality in comparison with untreated controls. As to the method:
The active compounds were formulated in 1:3 (vol:vol) DMSO:water with different concentrations of formulated compounds.
Bean leaf disks were placed into microtiterplates filled with 0.8% agar-agar and 2.5 ppm OPUST™. The leaf disks were sprayed with 2.5 μl of the test solution and 5 to 8 adult aphids were placed into the microtiterplates which were then closed and kept at 23±1° C. and 50±5% relative humidity under fluorescent light for 6 days. Mortality was assessed on the basis of vital, reproduced aphids. Aphid mortality and fecundity was then visually assessed.

For assay [2], the system named is boll weevil (Anthonomus grandis). The assay can be described thus: Activity against boll weevil, insect diet with eggs in microtiter plates. As to conditions: 120 h, test solution 2500 mg/L, sprayed onto diet, 5 days, read-out: mortality (egg and larval) in comparison with untreated controls. As to the method:
The compounds were formulated in 75:25 (vohvol) water:DMSO.
For evaluating control of boll weevil (Anthonomus grandis) the test unit consisted of 24-well-microtiter plates containing an insect diet and 20-30 A. grandis eggs. Different concentrations of formulated compounds were sprayed onto the insect diet at 20 μI, using a custom built micro atomizer, at two replications. After application, the microtiter plates were incubated at 23±1° C. and 50±5% relative humidity for 5 days. Egg and larval mortality was then visually assessed.

Assay [3] relates to cowpea aphid (Aphis craccivora). The assay is described as follows: Activity against cowpea aphid, sprayed potted cowpea plants. The note with it: spray, population reduction assessed after 24, 72 and 120 hours, read-out: mortality in comparison with untreated controls. As to the method: The active compounds were formulated in 50:50 (vohvol) acetone:water. The test solution was prepared at the day of use.
Potted cowpea plants colonized with 100-150 aphids of various stages were sprayed after the pest population had been recorded. Population reduction was assesed after 24, 72, and 120 hours.

Assay [4] relates to silverleaf whitefly (Bemisia argentifolii, adult). The assay can be described thus: Activity against silverleaf whitefly adults, sprayed cotton plants. As to conditions: 72 h, spray, 3 days after treatment, read-out: mortality in comparison with untreated controls. As to the method:
The active compounds were formulated in cyclohexanone as a 10,0000 ppm solution supplied in 1.3 ml ABgene® tubes. These tubes were inserted into an automated electrostatic sprayer equipped with an atomizing nozzle and they served as stock solutions for which lower dilutions were made in 50% acetone:50% water (v/v). A nonionic surfactant (Kinetic®) was included in the solution at a volume of 0.01% (v/v).
Cotton plants at the cotyledon stage (one plant per pot) were sprayed by an automated electrostatic plant sprayer equipped with an atomizing spray nozzle. The plants were dried in the sprayer fume hood and then removed from the sprayer. Each pot was placed into a plastic cup and 10 to 12 whitefly adults (approximately 3-5 days old) were introduced. The insects were collected using an aspirator and 0.6 cm, nontoxic Tygon® tubing (R-3603) connected to a barrier pipette tip. The tip, containing the collected insects, was then gently inserted into the soil containing the treated plant, allowing insects to crawl out of the tip to reach the foliage for feeding. Cups were covered with a reusable screened lid (150-micron mesh polyester screen PeCap from Tetko, Inc.). […] Mortality was assessed 3 days after treatment, compared to untreated control plants.

Assay [5] relates to Vanda/orchid thrips (Dichromothrips corbetti). The assay is described as follows: Activity against Vanda/orchid thrips, dipped orchid petals. The note with it: petal dip, after 72 hours, read-out: mortality in comparison with untreated controls. As to the method: The active compounds were formulated as a 50:50 (vohvol) acetone:water solution. Surfactant (Alkamuls® EL 620 from Rhodia) was added at the rate of 0.1% (vol/vol). Vanda orchids petals were cleaned, washed and air dried prior to dipping. Petals were dipped into the test solution for 3 seconds, air dried, placed inside a resealable plastic and inoculated with 20 adults. The treated petals were kept inside the holding room at 28-29° C. and relative humidity of 50-60%. Percent mortality was recorded after 72 hours.

The subject of assay [6] is Mediterranean fruitfly (Ceratitis capitata). The assay is described as follows: Activity against Mediterranean fruitfly, insect diet with eggs in microtiter plates. As to conditions: 120 h, sprayed onto diet with eggs, 5 days, read-out: mortality (egg and larval). As to the method:
The active compounds were formulated in 1:3 (vohvol) DMSO:water.
For evaluating control of Mediterranean fruitfly the test unit consisted of microtiter plates containing an insect diet and 50 to 80 C. capitata eggs.
Different concentrations of formulated compounds were sprayed onto the insect diet at 5 μI, using a custom built micro atomizer, at two replications. After application, microtiter plates were incubated at 28±1° C. and 80±5% relative humidity for 5 days. Egg and larval mortality was then visually assessed.

Assay [7] concerns brown planthopper (Nilaparvata lugens). The assay is described as follows: Activity against brown planthopper, sprayed rice seedlings. As to conditions: spray, after 72 hours, read-out: mortality in comparison with untreated controls. As to the method: The active compounds were formulated as a 50:50 (vohvol) acetone:water solution. Surfactant (Alkamuls® EL 620 from Rhodia) was added at the rate of 0.1% (vol/vol).
Rice seedlings were cleaned and washed 24 h before spraying. Potted rice seedlings were sprayed with 5 ml test solution, air dried, placed in cages and inoculated with 10 adults. Treated rice plants were kept at 28-29° C. and relative humidity of 50-60%. Percent mortality was recorded after 72 hours.

Assay [8] has as its system diamondback moth (Plutella xylostella). The assay can be described thus: Activity against diamondback moth, dipped cabbage leaf disk. The note with it: foliar, test solution 500 ppm, leaf dip, third instar larvae, after 72 h, read-out: mortality in comparison with untreated controls. As to the method: The active compounds were formulated in 50:50 acetone:water and 0.1% (vol/vol) Alkamuls® EL 620 surfactant. A 6 cm leaf disk of cabbage leaves was dipped in the test solution for 3 seconds and allowed to air dry in a Petri plate lined with moist filter paper. The leaf disk was inoculated with 10 third instar larvae and kept at 25-27° C. and 50-60% humidity for 3 days. Mortality was assessed after 72 h of treatment.

By mortality is commonly meant the percentage killed.

For the compound `CC(SCCSC(F)(F)F)c1nnc(C(F)(F)F)s1` (centres unmarked) [11-1, 2-(Trifluoromethyl)-5-{1-[2-(trifluoromethylthio)ethylthio]ethyl}-1,3,4-thiadiazole], the mortality at 2500 µg/mL in assay [1] and in assay [2] was 100% in each case.

`CC(c1nnc(C(F)(F)F)s1)S(=O)(=O)CCSC(F)(F)F` (centres unmarked) [11-2, 2-(Trifluoromethyl)-5-{1-[2-(trifluoromethylthio)ethylsulfonyl]-ethyl}-1,3,4-thiadiazole]: the mortality at 500 ppm in assay [3], in assay [4] and in assay [5] was at least 75% each time. The mortality at 2500 µg/mL in assay [1] and in assay [2] was 100% in each case. The mortality at 2500 ppm in assay [6] is at least 50%.

For `CC(c1nnc(C(F)(F)F)s1)[S+]([O-])CCSC(F)(F)F` (centres unmarked) [11-3, 2-(Trifluoromethyl)-5-{1-[2-(trifluoromethylthio)ethylsulfinyl]ethyl}-1,3,4-thiadiazole], the mortality at 500 ppm in assay [3], in assay [5], in assay [7] and in assay [8] was at least 75% each time. Moreover, the mortality at 2500 µg/mL in assay [1] and in assay [2] was 100% each time.

On to `CC(Cl)(c1nnc(C(F)(F)F)s1)[S+]([O-])CCSC(F)(F)F` (centres unmarked) [11-8, 2-{1-Chloro-1-[2-(trifluoromethylthio)ethylsulfinyl]ethyl}-5-(trifluoromethyl)-1,3,4-thiadiazole], for which the mortality at 2500 µg/mL in assay [2] was determined as 100%. The mortality at 500 ppm in assay [7] is at least 75%.

Turning to `CC(C#N)(SCCSC(F)(F)F)c1nnc(C(F)(F)F)s1` (centres unmarked) [11-9, 2-(5-(trifluoromethyl)-1,3,4-thiadiazol-2-yl)-2-(2-(trifluoromethylthio)ethylthio)propanenitrile], in assay [6], the mortality at 2500 ppm is at least 50%.
